Reference: patent US7109193B2, “Tricyclic diazepines tocolytic oxytocin receptor antagonists” (Wyeth, priority 2001, dated 2006)

Molecular target: T1, human oxytocin receptor (Homo sapiens, UniProt P30559)
T1 construct: host or cells: CHO cells (pcDNA3.1 vector)
T1 sequence (P30559 1-389): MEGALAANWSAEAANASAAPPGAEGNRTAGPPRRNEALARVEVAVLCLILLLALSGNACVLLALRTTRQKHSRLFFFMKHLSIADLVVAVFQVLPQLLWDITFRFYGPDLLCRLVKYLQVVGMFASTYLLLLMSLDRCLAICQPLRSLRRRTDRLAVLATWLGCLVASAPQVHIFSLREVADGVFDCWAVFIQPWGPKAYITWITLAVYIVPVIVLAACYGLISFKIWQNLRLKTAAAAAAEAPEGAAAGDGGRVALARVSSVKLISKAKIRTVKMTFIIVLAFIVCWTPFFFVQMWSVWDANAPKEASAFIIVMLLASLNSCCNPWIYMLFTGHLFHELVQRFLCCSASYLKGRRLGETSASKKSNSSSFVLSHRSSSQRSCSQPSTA
Experiment: Oxytocin binding in Chinese Hamster Ovary cell membranes expressing human oxytocin receptors
Conditions: 100 nM, CHO cell membranes, [3H]oxytocin, values without parentheses, read-out: OT % inhibition @ 100% nM

SMILES	inhibition at 0.1 µM
COc1cc(-c2ccccc2C)c(Cl)cc1C(=O)N1Cc2ccc(C(=O)N[C@@H]3CN4CCC3CC4)n2Cc2ccccc21 [Example 297, N-[(3S)-1-Azabicyclo[2.2.2]oct-3-yl]-10-[(6-chloro-3-methoxy-2′-methyl-[1,1′-biphenyl]-4-yl)carbonyl]-10,11-dihydro-5H-pyrrolo[2,1-c][1,4]benzodiazepine-3-carboxamide]	73%
Cc1ccccc1-c1ccc(C(=O)N2Cc3ccc(C(=O)N4CCCN(C)CC4)n3Cc3ccccc32)cc1 [Example 65, {10-[(2′-Methyl[1,1′-biphenyl]-4-yl)carbonyl]-10,11-dihydro-5H-pyrrolo[2,1-c][1,4]benzodiazepin-3-yl}(4-methyl-1,4-diazepan-1-yl)methanone]	68%
CCOc1ccccc1-c1cc(OC)c(C(=O)N2Cc3cccn3Cc3ccccc32)cc1Cl [Example 17, 10-{[6-Chloro-3-methoxy-2′-ethoxy[1,1′-biphenyl]-4-yl]carbonyl}-10,11-dihydro-5H-pyrrolo[2,1-c][1,4]benzodiazepine]	28%
COc1ccccc1-c1ccc(C(=O)N2Cc3ccc(C(=O)N[C@@H]4CN5CCC4CC5)n3Cc3ccccc32)cc1OC [Example 300, N-[(3S)-1-Azabicyclo[2.2.2]oct-3-yl]-10-[(2,2′-dimethoxy[1,1′-biphenyl]-4-yl)carbonyl]-10,11-dihydro-5H-pyrrolo[2,1-c][1,4]benzodiazepine-3-carboxamide]	72%
COc1ccccc1-c1ccc(C(=O)N2Cc3ccc(C(=O)N[C@@H]4CN5CCC4CC5)n3Cc3ccccc32)cc1C [Example 295, N-[(3S)-1-Azabicyclo[2.2.2]oct-3-yl]-10-[(2′-methoxy-2-methyl[1,1′-biphenyl]-4-yl)carbonyl]-10,11-dihydro-5H-pyrrolo[2,1-c][1,4]benzodiazepine-3-carboxamide]	79%
Cc1ccccc1-c1ccc(C(=O)N2Cc3ccc(C(=O)N4CCCN(C)CC4)n3Cc3ccccc32)cc1C [Example 63, {10-[(2,2′-Dimethyl[1,1′-biphenyl]-4-yl)carbonyl]-10,11-dihydro-5H-pyrrolo[2,1-c][1,4]benzodiazepin-3-yl}(4-methyl-1,4-diazepan-1-yl)methanone]	98%
Cc1cc(C(=O)N2Cc3cccn3Cc3ccccc32)ccc1-c1ccncc1 [Example 31, [3-Methyl-4-(4-pyridinyl)phenyl]-[10,11-dihydro-5H-pyrrolo[2,1-c][1,4]benzodiazepin-10-yl]methanone]	69%
COc1cccc(-c2cc(OC)c(C(=O)N3Cc4ccc(C(=O)N5CCCN(C)CC5)n4Cc4ccccc43)cc2Cl)c1 [Example 67, {10-[(6-Chloro-3,3′-dimethoxy[1,1′-biphenyl]-4-yl)carbonyl]-10,11-dihydro-5H-pyrrolo[2,1-c][1,4]benzodiazepin-3-yl}(4-methyl-1,4-diazepan-1-yl)methanone]	79%
COc1cc(C(=O)N2Cc3ccc(C(=O)N4CCN(C)CC4)n3Cc3ccccc32)ccc1-c1ccccc1C [Example 53, {10-[(2-Methoxy-2′-methyl[1,1′-biphenyl]-4-yl)carbonyl]-10,11-dihydro-5H-pyrrolo[2,1-c][1,4]benzodiazepin-3-yl}(4-methyl-1-piperazinyl)methanone]	89%
COc1ccccc1-c1ccc(C(=O)N2Cc3ccc(C(=O)N4CCN(C)CC4)n3Cc3ccccc32)cc1OC [Example 56, {10-[(2,2′-Dimethoxy[1,1′-biphenyl]-4-yl)carbonyl]-10,11-dihydro-5H-pyrrolo[2,1-c][1,4]benzodiazepin-3-yl}(4-methyl-1-piperazinyl)methanone]	68%
COc1cccc(-c2cc(OC)c(C(=O)N3Cc4ccc(C(=O)N5CCN(C)CC5)n4Cc4ccccc43)cc2Cl)c1 [Example 54, {10-[(6-Chloro-3,3′-dimethoxy[1,1′-biphenyl]-4-yl)carbonyl]-10,11-dihydro-5H-pyrrolo[2,1-c][1,4]benzodiazepin-3-yl}(4-methyl-1-piperazinyl)methanone]	78%

Further lines, results first:

inhibition at 0.1 µM	SMILES
45%	COc1cccc(-c2ccc(C(=O)N3Cc4ccc(C(=O)NCCCN(C)C)n4Cc4ccccc43)cc2C)c1 [Example 74, N-[3-(Dimethylamino)propyl]-10-[(3′-methoxy-2-methyl[1,1′-biphenyl]-4-yl)carbonyl]-10,11-dihydro-5H-pyrrolo[2,1-c][1,4]benzodiazepine-3-carboxamide]
86%	COc1ccccc1-c1ccc(C(=O)N2Cc3ccc(C(=O)N[C@@H](Cc4c[nH]cn4)C(N)=O)n3Cc3ccccc32)cc1OC [Example 286, N-[(1S)-2-Amino-1-(1H-imidazol-4-ylmethyl)-2-oxoethyl]-10-[(2,2′-dimethoxy[1,1′-biphenyl]-4-yl)carbonyl]-10,11-dihydro-5H-pyrrolo[2,1-c][1,4]benzodiazepine-3-carboxamide]
34%	COc1cc(C(=O)N2Cc3ccc(C(=O)N4CCN(C)CC4)n3Cc3ccccc32)ccc1-n1c(C)ccc1C [Example 306, {10-[4-(2,5-Dimethyl-1H-pyrrol-1-yl)-3-methoxybenzoyl]-10,11-dihydro-5H-pyrrolo[2,1-c][1,4]benzodiazepin-3-yl}(4-methyl-1-piperazinyl)methanone]
74%	COc1cc(-c2ccccc2C)c(Cl)cc1C(=O)N1Cc2ccc(C(=O)N[C@@H](CCCCNC(=O)OC(C)(C)C)C(N)=O)n2Cc2ccccc21 [Example 304, tert-Butyl (5S)-6-amino-5-[({10-[(6-chloro-3-methoxy-2′-methyl[1,1′-biphenyl]-4-yl)carbonyl]-10,11-dihydro-5H-pyrrolo[2,1-c][1,4]benzodiazepin-3-yl}carbonyl)amino]-6-oxohexylcarbamate]
32%	COc1cc(C(=O)N2Cc3ccc(C(=O)n4ccnc4)n3Cc3ccccc32)ccc1-c1cccc2ccccc12 [Example 291, 1H-Imidazol-1-yl-{10-[3-methoxy-4-(1-naphthyl)benzoyl]-10,11-dihydro-5H-pyrrolo[2,1-c][1,4]benzodiazepin-3-yl}methanone]
78%	COc1cc(C(=O)N2Cc3ccc(C(=O)n4ccnc4)n3Cc3ccccc32)ccc1-c1ccccc1C [Example 290, 1H-Imidazol-1-yl-{10-[(2-methoxy-2′-methyl[1,1′-biphenyl]-4-yl)carbonyl]-10,11-dihydro-5H-pyrrolo[2,1-c][1,4]benzodiazepin-3-yl}methanone]
16%	COc1cc(C(=O)N2Cc3ccc(C(=O)NCCCn4ccnc4)n3Cc3ccccc32)ccc1-n1c(C)ccc1C [Example 312, 10-[4-(2,5-Dimethyl-1H-pyrrol-1-yl)-3-methoxybenzoyl]-N-[3-(1H-imidazol-1-yl)propyl]-10,11-dihydro-5H-pyrrolo[2,1-c][1,4]benzodiazepine-3-carboxamide]
7%	COc1cc(C(=O)N2Cc3ccc(C(=O)NCCCN(C)C)n3Cc3ccccc32)ccc1-n1c(C)ccc1C [Example 308, N-[3-(Dimethylamino)propyl]-10-[4-(2,5-dimethyl-1H-pyrrol-1-yl)-3-methoxybenzoyl]-10,11-dihydro-5H-pyrrolo[2,1-c][1,4]benzodiazepine-3-carboxamide]
97%	Cc1ccccc1-c1ccc(C(=O)N2Cc3ccc(C(=O)N4CCN(CCCN(C)C)CC4)n3Cc3ccccc32)cc1C [Example 247, {4-[3-(Dimethylamino)propyl]-1-piperazinyl}{10-[(2,2′-dimethyl[1,1′-biphenyl]-4-yl)carbonyl]-10,11-dihydro-5H-pyrrolo[2,1-c][1,4]benzodiazepin-3-yl}methanone]
87%	Cc1cc(C(=O)N2Cc3ccc(C(=O)N[C@@H](Cc4c[nH]cn4)C(N)=O)n3Cc3ccccc32)ccc1-c1ccccc1C(F)(F)F [Example 284, N-[(1S)-2-Amino-1-(1H-imidazol-4-ylmethyl)-2-oxoethyl]-10-{[2-methyl-2′-(trifluoromethyl)[1,1′-biphenyl]-4-yl]carbonyl}-10,11-dihydro-5H-pyrrolo[2,1-c][1,4]benzodiazepine-3-carboxamide]
87%	COc1cc(C(=O)N2Cc3ccc(C(=O)N4CCN(CCCN(C)C)CC4)n3Cc3ccccc32)ccc1-c1ccccc1C [Example 250, {4-[3-(Dimethylamino)propyl]-1-piperazinyl}{10-[(2-methoxy-2′-methyl[1,1′-biphenyl]-4-yl)carbonyl]-10,11-dihydro-5H-pyrrolo[2,1-c][1,4]benzodiazepin-3-yl}methanone]
85%	Cc1cc(C(=O)N2Cc3ccc(C(=O)N4CCN(CCCN(C)C)CC4)n3Cc3ccccc32)ccc1-c1ccccc1C(F)(F)F [Example 257, {10-[(2-Methyl-2′-trifluoromethyl-[1,1′-biphenyl]-4-yl)carbonyl]-10,11-dihydro-5H-pyrrolo[2,1-c][1,4]benzodiazepin-3-yl}{4-[3-(dimethylamino)propyl]-1-piperazinyl}-methanone]
64%	COc1cccc(-c2cc(OC)c(C(=O)N3Cc4ccc(C(=O)N[C@@H](CCCCNC(=O)OC(C)(C)C)C(N)=O)n4Cc4ccccc43)cc2Cl)c1 [Example 302, tert-Butyl (5S)-6-amino-5-[({10-[(6-chloro-3,3′-dimethoxy[1,1′-biphenyl]-4-yl)carbonyl]-10,11-dihydro-5H-pyrrolo[2,1-c][1,4]benzodiazepin-3-yl}carbonyl)amino]-6-oxohexylcarbamate]
85%	Cc1ccccc1-c1ccc(C(=O)N2Cc3ccc(C(=O)NCCCN(C)C)n3Cc3ccccc32)cc1C [Example 73, N-[3-(Dimethylamino)propyl]-10-[(2,2′-dimethyl[1,1′-biphenyl]-4-yl)carbonyl]-10,11-dihydro-5H-pyrrolo[2,1-c][1,4]benzodiazepine-3-carboxamide]
